Measured values as given in publication PMC5818615, “Use of HuH6 and other human-derived hepatoma lines for the detection of genotoxins: a new hope for laboratory animals?” (Archives of Toxicology, 2017).
Read-outs that look alike come from different tables or passages of the source.

What was measured:
HCC 1.2 cells = settings: 48 h, control 6.61 ± 2.14, starred P ≤ 0.05
Protocol: (§1) The SCGE experiments were conducted as described in an international guideline (Tice et al. [2000]). Reagents for the assays (lysis solution and alkaline electrophoresis buffer) and agarose-coated slides were prepared according to Collins and Dusinska ([2009]).
(§2) Briefly, cells were sub-cultured in 1.0 ml medium in 24–well tissue-culture plates (Sarstedt Inc., Newton, NC, USA). After 24 h, the media were changed and the cells exposed to different concentrations of the test compounds or to the solvent controls (PBS or DMSO). […] To terminate the treatment, the cells were washed twice with PBS (1.0 ml), trypsinized (100 µl T/E per well, 4 min) and then resuspended in 400 µl culture medium containing FBS. Subsequently, the suspensions were transferred to Eppendorf tubes and centrifuged (200g, 5 min). Cell pellets were resuspended in cold PBS.
(§3) In all experiments, acute toxic effects were determined with a CASY® Cell Counter and Analyzer System (Schärfe-System GmbH, Reutlingen, Germany) (Lindl et al. [2005]). SCGE assays were only performed when the viability of the cultures was ≥ 70% (Koppen et al. [2017]). Per experimental point, two cultures were set up in parallel and from each one slide with two separate gels (30,000 cells/gel) was prepared. After unwinding (40 min, pH > 13) and electrophoresis (30 min, 0.75 V/cm, ~ 300 mA, 4 °C, pH > 13), 50 cells were evaluated per gel (200 cells per experimental point). As an endpoint, we determined the tail intensities (“% DNA in tail”) with a computer-aided system Comet Assay IV (Perceptive Instruments, Bury St Edmunds, UK), which is at present the most widely used parameter (Collins et al. [2008]; Moller [2006]). For each gel, the median of the tail intensity was calculated.

Hep3B cells = settings: Hep3B, 48 h, control 1.56 ± 0.18
Protocol: as §1, §2, §3

HepG2 cells = settings: 48 h, control 2.90 ± 1.03, starred P ≤ 0.05
Protocol: as §1, §2, §3

HepaRG cells = settings: for % DNA in tail: HepaRG, 48 h
Protocol: as §1, §2, §3

HuH6 cells = settings: 48 h, control 1.81 ± 1.15, starred P ≤ 0.05
Protocol: as §1, §2, §3

HuH7 cells = settings: 48 h, control 5.12 ± 1.05
Protocol: as §1, §2, §3

JHH6 cells = settings: 48 h, control 0.59 ± 0.21
Protocol: as §1, §2, §3

PLC/PRF cells = settings: PLC/PRF, 48 h, control 3.82 ± 1.22
Protocol: as §1, §2, §3

SK-Hep1 cells = settings: 48 h, control 2.84 ± 2.06
Protocol: as §1, §2, §3

SNU-398 cells = settings: 48 h, control 5.60 ± 3.26
Protocol: as §1, §2, §3

SNU-449 cells = settings: 48 h, control 2.12 ± 0.59
Protocol: as §1, §2, §3

WRL68 cells = settings: 48 h, control 2.89 ± 1.16
Protocol: as §1, §2, §3

[1] = test system: human derived liver cell lines; settings: SCGE experiments without exogenous enzyme activation mix
Protocol: as §1, §2, §3

[2] = test system: primary human hepatocytes; settings: ref Wilkening et al. [2003]; cited from earlier work
[3] = ref IARC [1993]; cited from earlier work

Cn1c(N)nc2ncc(-c3ccccc3)cc21 [PhIP, 2-amino-1-methyl-6-phenylimidazo[4,5-b]pyridine]
% DNA in tail (HCC 1.2 cells; HCC 1.2, PhIP 50.0 µM): 17.5 ± 4.84%
% DNA in tail (HCC 1.2 cells; HCC 1.2, PhIP 100.0 µM): 15.1 ± 2.32%
% DNA in tail (HCC 1.2 cells; HCC 1.2, PhIP 300.0 µM): 14.8 ± 2.63%
% DNA in tail (Hep3B cells; PhIP 50.0 µM): 1.43 ± 0.24%
% DNA in tail (Hep3B cells; PhIP 100.0 µM): 0.82 ± 0.53%
% DNA in tail (HepG2 cells; HepG2, PhIP 50.0 µM): 6.92 ± 2.00%
% DNA in tail (HepG2 cells; HepG2, PhIP 100.0 µM): 6.78 ± 1.37%
Result of SCGE experiments (in words) (HepaRG cells; HepaRG cells): detected
% DNA in tail (HepaRG cells; PhIP 50.0 µM, control 0.53 ± 0.66, starred P ≤ 0.05): 4.82 ± 3.57%
% DNA in tail (HepaRG cells; PhIP 100.0 µM, control 0.53 ± 0.66): 2.86 ± 1.73%
% DNA in tail (HuH6 cells; HuH6, PhIP 50.0 µM): 11.51 ± 3.64%
% DNA in tail (HuH6 cells; HuH6, PhIP 100.0 µM): 8.67 ± 2.67%
% DNA in tail (HuH6 cells; HuH6, PhIP 300.0 µM): 24.7 ± 2.15%
% DNA in tail (HuH7 cells; HuH7, PhIP 50.0 µM): 5.35 ± 2.84%
% DNA in tail (HuH7 cells; HuH7, PhIP 100.0 µM): 9.21 ± 2.26%
% DNA in tail (HuH7 cells; HuH7, PhIP 300.0 µM): 3.55 ± 2.08%
% DNA in tail (JHH6 cells; JHH6, PhIP 50.0 µM): 0.93 ± 1.09%
% DNA in tail (JHH6 cells; JHH6, PhIP 100.0 µM): 1.44 ± 0.53%
% DNA in tail (PLC/PRF cells; PhIP 50.0 µM): 2.51 ± 0.56%
% DNA in tail (PLC/PRF cells; PhIP 100.0 µM): 4.00 ± 3.72%
% DNA in tail (PLC/PRF cells; PhIP 300.0 µM): 2.43 ± 2.03%
% DNA in tail (SK-Hep1 cells; SK-Hep1, PhIP 50.0 µM): 5.18 ± 1.19%
% DNA in tail (SK-Hep1 cells; SK-Hep1, PhIP 100.0 µM): 5.83 ± 1.06%
% DNA in tail (SK-Hep1 cells; SK-Hep1, PhIP 300.0 µM): 5.77 ± 4.30%
% DNA in tail (SNU-398 cells; SNU-398, PhIP 50.0 µM): 2.92 ± 1.18%
% DNA in tail (SNU-398 cells; SNU-398, PhIP 100.0 µM): 7.04 ± 5.97%
% DNA in tail (SNU-398 cells; SNU-398, PhIP 300.0 µM): 10.3 ± 1.06%
% DNA in tail (SNU-449 cells; SNU-449, PhIP 50.0 µM): 2.02 ± 0.81%
% DNA in tail (SNU-449 cells; SNU-449, PhIP 100.0 µM): 3.06 ± 1.08%
% DNA in tail (SNU-449 cells; SNU-449, PhIP 300.0 µM): 1.17 ± 0.83%
% DNA in tail (WRL68 cells; WRL68, PhIP 50.0 µM): 5.17 ± 3.21%
% DNA in tail (WRL68 cells; WRL68, PhIP 100.0 µM): 3.77 ± 1.36%
% DNA in tail (WRL68 cells; WRL68, PhIP 300.0 µM): 3.39 ± 3.35%
Number of the twelve lines sensitive towards the compound [1]: four
Sensitivity of primary hepatocytes compared with HepG2 [2]: substantially stronger effects
IARC classification [3]: Causes guanine adducts that induces tumors at multiple sites in animal models IARC: Group 2B
